These results are taken from patent US8003595B2, “Amino acid sequences facilitating penetration of a substance of interest into cells and/or cell nuclei” (Cellectis, priority 2000, dated 2011).

Where two headings read alike, the source gives them in different places. Marks after values point to notes of the source that are not given here.

The nature of experiment [1]: ELISA fixation of biotinylated peptides on sensitized plates. As to conditions: for EC50: Table 4, read-out: avidity: quantity of peptides necessary to obtain 50% fixation, Chondroitin A; for Kd: read-out: avidity (Kd), quantity of peptides necessary to obtain 50% fixation, Chondroitin A, Table 5. The format is binding. On the technique in general: ELISA stands for enzyme-linked immunosorbent assay.

Another experiment relates to DNA. The experiment is described as above. The following applies: ELISA plates sensitized with DNA; read-out: avidity: quantity of peptides necessary to obtain 50% fixation, DNA. The format is binding. The protocol: (§1) The capacity of peptides SEQ ID NO: 1 to 21 to attach themselves to DNA and heparin is evaluated on ELISA plates sensitized with DNA or heparin. Dilutions of biotinylated peptides are deposited on the plates and their fixation is shown using streptavidin conjugated with peroxidase. […] The avidity of each of the peptides for DNA or heparin is evaluated by the quantity (×10^−6 M) of peptides necessary to obtain 50% fixation.

Test in experiment [2]: as above
The format is binding. The following applies: for EC50: ELISA plates sensitized with heparin, Table 4, read-out: avidity: quantity of peptides necessary to obtain 50% fixation, Heparin; for Kd: read-out: avidity (Kd), quantity of peptides necessary to obtain 50% fixation, Heparin. The protocol:
as §1

Test in experiment [3]: as above
The following applies: for EC50: Table 4, read-out: avidity: quantity of peptides necessary to obtain 50% fixation, Chondroitin C; for Kd: read-out: avidity (Kd), quantity of peptides necessary to obtain 50% fixation, Chondroitin C, Table 5. The format is binding.

Test in experiment [4]: as above
The format is binding. The following applies: for EC50: Table 4, read-out: avidity: quantity of peptides necessary to obtain 50% fixation, Chondroitin B; for Kd: read-out: avidity (Kd), quantity of peptides necessary to obtain 50% fixation, Chondroitin B, Table 5.

Experiment [5] has as its system H1299 cells. The experiment is described as follows: Internalization of biotinylated peptide/S-PO complexes. The format is cell-based, human. The protocol:
A biotinylated/S-PO peptide or biotinylated/A-PO complex (A-PO for avidin-peroxidase) is prepared extemporaneously in two ways:
1) either in a peptide: S-PO or A-PO molar ratio of 4:1 (for example, 1.4 μg of peptide with a molecular weight of 3500 to 10 μg of S-PO; the weight of S-PO used varies depending on the peptides since their molecular weights are different).
2) or in a peptide: S-PO or A-PO molar ratio of 25:1 (for example 1.7 μg of peptide with a molecular weight of 3500 to 1 μg of S-PO).
The complexes are prepared by incubating the biotinylated peptide with S-PO or A-PO in PBS in a volume of 5 to 10 μl for 15 minutes at laboratory temperature. They are then diluted in 1 ml of complete culture medium, filtered on a 0.2 micron membrane and incubated with the cells for 4 hours. The cells are then washed three times with PBS.
To study the penetration of the complexes under a microscope, the cells are fixed as before for 15 minutes in ethanol at −20° C., they are washed with PBS, and the activity of the internalized peroxidase is shown by diaminobenzidine in the presence of H2O2. To measure the quantity of peptide/S-PO or A-PO complexes internalized, the cells are trypsinized, transferred into microtubes and counted. They are washed twice by centrifugation, then the residue is suspended in 200 μl of lysis buffer (Tris buffer, 0.1 M, pH8, 0.5% Nonidet). After 15 minutes, the peroxidase contained in the lysis buffer is dosed onto 96-well plates with ortho-dianisidine and H2O2 by comparison with a standard curve for S-PO. The reading is taken at 450 nm. The quantity contained in the different samples is expressed in picograms (pg) per 10^4 cells.
Table 7 below reports the results of evaluating the influence of SEQ ID NO: 1 on the penetration of peptides coupled to SEQ ID NO: 1 into H1299 cells, where
Concentration a: 25 peptides to one molecule of S-PO (1 μg),
Concentration b: 4 peptides to one molecule of S-PO (10 μg).

For experiment [6], the system named is H1299 cells. Put plainly: Internalization of covalent peptide-peroxidase conjugates. The format is cell-based, human. As to conditions: for quantity of peptide internalized: 2 hours. The protocol: To evaluate more directly the penetration of the peptides, avoiding the avidin-peroxidase bias, some of the peptides in sequences SEQ ID NO: 25 to 48 were conjugated covalently with cysteine in the C-terminal position of the peptide to peroxidase. The peptides were coupled with peroxidase in the following way:
One mg of peroxidase activated with maleimide (Sigma) in 100 μl of sodium phosphate buffer, NaCl 0.15 M, EDTA 5 mM, had 1 mg of peptide added to it. After 2 hours at laboratory temperature, β-mercaptoethanol is added to a final concentration of 1.5 mM for 15 minutes. The uncoupled peptide is eliminated by centrifugation on ultrafiltration membranes (cut-off threshold=30,000 Daltons, Sartorius), followed by three washings in sodium phosphate buffer 0.1 M, pH 7.4 containing 0.15 M NaCl.
The H1299 cells are incubated for 2 hours with the conjugates at increasing concentrations of peptide-peroxidase in the culture medium, then washed with PBS. The cells are lysed and the quantity of peptide internalized is evaluated by the dosage of peroxidase in the lysate of the cells with reference to a curve established with peptide-peroxidase.
The quantity of peptide internalized (pg/10^3 cells), depending on the concentrations of conjugates in the culture medium, is shown in Table 8 below.
It appears that the higher the concentration of peptide-peroxidase conjugate in the culture medium, the more the quantity internalized increases. To compare the penetration of the conjugates by cell type, the cells from different lines were incubated with 0.2 μg/ml of peptide-peroxidase conjugate for 2 hours, and the quantity of peroxidase dosed in the lysates. Table 9 and Table 9B below give the results expressed in pg/10^3 cells. The quantity of each peptide internalized in the different lines generally varies only from single to double.

[7] abbreviates: Conc. a: 25 peptides to one molecule of S-PO (1 μg).
Setting [8] is: Conc. b: 4 peptides to one molecule of S-PO (10 μg).

Turning to GRPRESGKKRKRKRLKP [compound 21], the EC50 is 0.12 µM in experiment [1]; 0.2 µM in the experiment on DNA; 0.07 µM in experiment [2]; 0.12 µM in experiment [3]; 0.12 µM in experiment [4].
In the case of KSRK [compound 18], the EC50 in experiment [1] was more than 134 µM; in the experiment on DNA it was more than 134 µM; in experiment [2], more than 0.134 µM; in experiment [3] it was more than 134 µM; in experiment [4], more than 134 µM.
KSRKKSRK [compound 19]: the EC50 (in experiment [1]; in the experiment on DNA; in experiment [2]; in experiment [3]; in experiment [4]) was more than 74 µM throughout.
Consider LRKRLLRD [compound 17], for which the EC50 (in experiment [1]; in the experiment on DNA; in experiment [2]; in experiment [3]; in experiment [4]) was more than 150 µM throughout.
Consider LRRERQSRLRRERSQSR [SEQ ID NO: 39], for which the Kd in experiment [1], in experiment [2] (Table 5), in experiment [3] and in experiment [4] was 0.1 µM in each case.
RGVRPRVTRMDVRHVRPRVTRMDV [compound 15]: the EC50 in experiment [1] is 0.2 µM; with DNA, 3 µM; in experiment [2] it was more than 30 µM; in experiment [3], 5 µM; in experiment [4] it was 4 µM.
Turning to “RHVRPRVTRMDVVKRGLKLRHVRPRVTRMDV [compound 16]”, the EC50 in experiment [1] is 0.012 µM; with DNA it was 0.019 µM; in experiment [2] it was 0.024 µM; in experiment [3] it was 0.002 µM; in experiment [4], 0.009 µM.
Regarding RKGFYKRKQCKP [SEQ ID NO: 20], the Kd in experiment [1] is 0.06 µM; in experiment [2] (Table 5), 0.07 µM; in experiment [3], 0.1 µM; in experiment [4], 0.04 µM. Moreover, the S-PO internalized in the experiment on H1299 cells [5] (peptide: S-PO complexes of 4:1, peptide concentration of 1 μg) came out at 431 pg/10^4 cells.
For RKGFYKRKQCKP [compound 20], the EC50 in experiment [1] came out at 0.06 µM; with DNA it was 0.09 µM; in experiment [2] it was 0.07 µM; in experiment [3], 0.1 µM; in experiment [4], 0.04 µM.
In the case of RKKRRRGDRKKRRRGD [SEQ ID NO: 28], the “percentage of quantity of peroxidase internalized compared to quantity deposited” value in the experiment on H1299 cells [6] (0.01 μg/ml) was “(0.006)* %”; with H1299 cells [6] (0.1 μg/ml) it was “(1.6) %”; in the experiment on H1299 cells [6] (0.5 μg/ml) it was “(7.6) %”; in the experiment with H1299 cells [6] (1 μg/ml), “(8.8) %”. Besides, the “quantity of peptide internalized” value in the experiment on H1299 cells [6] (peptide-peroxidase 0.01 μg/ml) came out at 0.006 pg/10^3 cells; with H1299 cells [6] (peptide-peroxidase 0.1 μg/ml), 1.7 pg/10^3 cells; in the experiment with H1299 cells [6] (peptide-peroxidase 0.5 μg/ml), 37.9 pg/10^3 cells; with H1299 cells [6] (peptide-peroxidase 1 μg/ml), 8860 pg/10^3 cells. Moreover, the “avidity (Kd), quantity of peptides necessary to obtain 50% fixation, Heparin” value in experiment [2] (Table 5) is given as “lost its affinity for heparin”. The Kd in experiment [2] (Table 5) was 0.407 µM.
Consider RQKYNKRAMDY [compound 4], for which the EC50 in experiment [1] was determined as 5.6 µM; with DNA, 4 µM; in experiment [2] it was 5 µM; in experiment [3], 5 µM; in experiment [4], 6.2 µM.
“SEQ ID NO: 15: twice the CDR3 region peptide of anti-DNA human monoclonal antibody NE-1 (RGVRPRVTRMDVRHVRPRVTRMDV; listed as Homo sapiens)”: the S-PO internalized in the experiment on H1299 cells [5] (setting [7]) is 250 pg/10^4 cells; with H1299 cells [5] (setting [8]), 6670 pg/10^4 cells.
For “SEQ ID NO: 16: inclusion, in position 13-19, of SEQ ID NO: 1 in SEQ ID NO: 15 (RHVRPRVTRMDVVKRGLKLRHVRPRVTRMDV; listed as Homo sapiens)”, in that order: 430 pg/10^4 cells and 5220 pg/10^4 cells.
On to TYYSDTVKGRFTRQKYNKRA [compound 6], for which the EC50 in experiment [1] was determined as 0.24 µM; with DNA, 0.19 µM; in experiment [2], 0.16 µM; in experiment [3] it was 0.22 µM; in experiment [4], 0.25 µM.
The matching figures for VKRGLKL [compound 1]: more than 100 µM, more than 100 µM, more than 100 µM, more than 100 µM and more than 100 µM.
Regarding VKRGLKLRQKYNKRAMDY [compound 5], the EC50 in experiment [1] was 0.13 µM; in the experiment on DNA it was 0.11 µM; in experiment [2], 0.11 µM; in experiment [3], 0.11 µM; in experiment [4], 0.11 µM.
VKRGLKLTYYSDTVKGRFTRQYNKRA [compound 7]: the EC50 was determined as 0.06 µM in experiment [1]; 0.05 µM in the experiment on DNA; 0.05 µM in experiment [2]; 0.06 µM in experiment [3]; 0.04 µM in experiment [4].
In the case of VKRGLKLVKRGLKL [compound 2], the EC50 in experiment [1] is 0.55 µM; in the experiment on DNA it was 2.2 µM; in experiment [2], 0.76 µM; in experiment [3] it was 0.55 µM; in experiment [4], 0.6 µM.
Turning to VKRGLKLVKRGLKLVKRGLKL [compound 3], the EC50 in experiment [1] was 0.037 µM; in the experiment on DNA it was 0.05 µM; in experiment [2], 0.041 µM; in experiment [3], 0.035 µM; in experiment [4], 0.041 µM.
Consider VKRGLKLVRRSGRVVVPAAPRNRD [compound 9], for which the EC50 was 0.017 µM in experiment [1]; 3.7 µM in the experiment with DNA; 3.7 µM in experiment [2]; more than 8 µM in experiment [3]; 0.5 µM in experiment [4].
Turning to VRRSGRVVVPAAPRNRD [compound 8], the EC50 (in experiment [1]; in the experiment with DNA; in experiment [2]; in experiment [3]; in experiment [4]) was more than 150 µM each time.
